According to US20070093455A1, “10-substituted tetracyclines and methods of use thereof” (priority 2005, published 2007):
≈ marks a conversion by molar mass, not a printed value.

System: S. aureus RN450
Assay: In vitro MIC assay, S. aureus RN450
Format: cell-based
Conditions: Staphylococcus aureus, broth microdilution, 35° C., 18-24 hours

Row | SMILES | MIC [µg/mL]
1 | CC1CCN(Cc2cccc3c2CC2CC4[C@@H](N(C)C)C(O)=C(C(N)=O)C(=O)[C@@]4(O)C(O)=C2C3=O)CC1 (stereo partly shown) [K] | 0 to 21

System: P. acnes (PBS 1073)
Assay: In vitro MIC assay, P. acnes (PBS 1073)
Format: cell-based
Conditions: Cutibacterium acnes; Brucella agar with laked sheep blood, 48 hours anaerobic, 35° C.

Row | SMILES | MIC [µg/mL]
2 | CC1CCN(Cc2cccc3c2CC2CC4[C@@H](N(C)C)C(O)=C(C(N)=O)C(=O)[C@@]4(O)C(O)=C2C3=O)CC1 (stereo partly shown) [K] | 28 to 32 (≈ 54.9 to 62.8 µM)

System: S. aureus RN4250
Assay: In vitro MIC assay, S. aureus RN4250
Format: cell-based
Conditions: Staphylococcus aureus, broth microdilution, 35° C., 18-24 hours

Row | SMILES | MIC [µg/mL]
3 | CC1CCN(Cc2cccc3c2CC2CC4[C@@H](N(C)C)C(O)=C(C(N)=O)C(=O)[C@@]4(O)C(O)=C2C3=O)CC1 (stereo partly shown) [K] | 0 to 21

System: P. acnes (ATCC 11827)
Assay: In vitro MIC assay, P. acnes (ATCC 11827)
Format: cell-based
Conditions: Cutibacterium acnes, ATCC11827; Brucella agar with laked sheep blood, 48 hours anaerobic, 35° C.

Row | SMILES | MIC [µg/mL]
4 | CC1CCN(Cc2cccc3c2CC2CC4[C@@H](N(C)C)C(O)=C(C(N)=O)C(=O)[C@@]4(O)C(O)=C2C3=O)CC1 (stereo partly shown) [K] | 0 to 8

System: S. pneumoniae 157E
Assay: In vitro MIC assay, S. pneumoniae 157E
Format: cell-based
Conditions: Streptococcus pneumoniae, broth supplemented with lysed horse blood, 35° C., 18-24 hours

Row | SMILES | MIC [µg/mL]
5 | CC1CCN(Cc2cccc3c2CC2CC4[C@@H](N(C)C)C(O)=C(C(N)=O)C(=O)[C@@]4(O)C(O)=C2C3=O)CC1 (stereo partly shown) [K] | 0 to 21

System: COS-1 or CHO cell
Assay: Mammalian cell cytotoxicity assay (Resazurin; Alamar Blue)
Format: cell-based
Conditions: COS-1 or CHO cells, 24 hour incubation
Protocol: To predict the in vivo risks associated with the compounds of the invention, a soluble, non-toxic redox dye (“Resazurin”; Alamar Blue) was used to assess a compound's effect on cellular metabolism. COS-1 or CHO cell suspensions were prepared, seeded into 96-well black-walled microtiter plates, and incubated overnight at 37° C., in 5% CO2 and approximately 95% humidity. On the next day, serial dilutions of test drug were prepared and transferred to cell plates. Following a 24 hour incubation period, the media/drug was aspirated, and 50 μL of resazurin was added. After a 2 hour incubation, fluorescence measurements were taken (excitation […], emission 590 nm) and toxic effects in treated versus control cells were compared based on the degree of fluorescence in each well.

Row | SMILES | cytotoxicity at 75 μg/mL
6 | CC1CCN(Cc2cccc3c2CC2CC4[C@@H](N(C)C)C(O)=C(C(N)=O)C(=O)[C@@]4(O)C(O)=C2C3=O)CC1 (stereo partly shown) [K] | minimal cytotoxicity

System: P. acnes (ATCC 1077)
Assay: In vitro MIC assay, P. acnes (ATCC 1077)
Format: cell-based
Conditions: Cutibacterium acnes, ATCC1077; Brucella agar with laked sheep blood, 48 hours anaerobic, 35° C.

Row | SMILES | MIC [µg/mL]
7 | CC1CCN(Cc2cccc3c2CC2CC4[C@@H](N(C)C)C(O)=C(C(N)=O)C(=O)[C@@]4(O)C(O)=C2C3=O)CC1 (stereo partly shown) [K] | 28 to 32 (≈ 54.9 to 62.8 µM)

System: P. aeruginosa K1033
Assay: In vitro MIC assay, P. aeruginosa K1033
Format: cell-based
Conditions: Pseudomonas aeruginosa, broth microdilution, 35° C., 18-24 hours

Row | SMILES | MIC [µg/mL]
8 | CC1CCN(Cc2cccc3c2CC2CC4[C@@H](N(C)C)C(O)=C(C(N)=O)C(=O)[C@@]4(O)C(O)=C2C3=O)CC1 (stereo partly shown) [K] | 0 to 21

System: S. aureus MRSA5
Assay: In vitro MIC assay, S. aureus MRSA5
Format: cell-based
Conditions: Staphylococcus aureus, broth microdilution, 35° C., 18-24 hours

Row | SMILES | MIC [µg/mL]
9 | CC1CCN(Cc2cccc3c2CC2CC4[C@@H](N(C)C)C(O)=C(C(N)=O)C(=O)[C@@]4(O)C(O)=C2C3=O)CC1 (stereo partly shown) [K] | 0 to 21

System: H. influenza (ATCC 49247)
Assay: In vitro MIC assay, H. influenza (ATCC 49247)
Format: cell-based
Conditions: read-out: MIC H. influenza (ATCC 49247)

Row | SMILES | MIC [µg/mL]
10 | CC1CCN(Cc2cccc3c2CC2CC4[C@@H](N(C)C)C(O)=C(C(N)=O)C(=O)[C@@]4(O)C(O)=C2C3=O)CC1 (stereo partly shown) [K] | 0 to 21

System: E. coli MG 1655 DWAK
Assay: In vitro MIC assay, E. coli MG 1655 DWAK
Format: cell-based
Conditions: Escherichia coli, MG1655DWAK; broth microdilution, 35° C., 18-24 hours
Protocol: The following assay was used to determine the efficacy of tetracycline compounds against common bacteria. Serial dilutions of compounds were prepared in microdilution plates using a Tecan robotic workstation. Mueller Hinton broth cultures of gram negative and gram positive strains were grown or adjusted to match the turbidity of a 0.5 McFarland standard. 1:200 dilutions were made in appropriate broth (cation supplemented Mueller Hinton broth or Haemophilus test medium) to allow a final inoculum of 1×10^5 cfu. Lysed horse blood was used to supplement broth for testing S. pneumoniae. The plates were incubated at 35° C. in ambient air for 18-24 hours, read spectrophotometrically, and checked manually for evidence of bacterial growth. Serial dilutions of compounds were also added to Brucella agar supplemented with laked sheep blood for P. acnes tests. A standard inoculum was transferred to the plate using a stainless steel replicator. After 48 hours of anaerobic incubation at 35° C. plates were examined. The MIC was defined as the lowest concentration of the tetracycline compound that inhibits growth. Table 3 gives the MIC (μg/mL) of selected substituted tetracycline compounds against a variety of gram positive and gram negative bacteria.

Row | SMILES | MIC [µg/mL]
11 | CC1CCN(Cc2cccc3c2CC2CC4[C@@H](N(C)C)C(O)=C(C(N)=O)C(=O)[C@@]4(O)C(O)=C2C3=O)CC1 (stereo partly shown) [K] | 0 to 21

System: B. fragilis (ATCC 25285)
Assay: In vitro MIC assay, B. fragilis (ATCC 25285)
Format: cell-based
Conditions: Bacteroides fragilis, ATCC25285

Row | SMILES | MIC [µg/mL]
12 | CC1CCN(Cc2cccc3c2CC2CC4[C@@H](N(C)C)C(O)=C(C(N)=O)C(=O)[C@@]4(O)C(O)=C2C3=O)CC1 (stereo partly shown) [K] | 0 to 8

System: E. coli (ATCC 25922)
Assay: In vitro MIC assay, E. coli (ATCC 25922)
Format: cell-based
Conditions: Escherichia coli, ATCC25922; broth microdilution, 35° C., 18-24 hours

Row | SMILES | MIC [µg/mL]
13 | CC1CCN(Cc2cccc3c2CC2CC4[C@@H](N(C)C)C(O)=C(C(N)=O)C(=O)[C@@]4(O)C(O)=C2C3=O)CC1 (stereo partly shown) [K] | 0 to 21

System: P. acnes (ATCC 6919)
Assay: In vitro MIC assay, P. acnes (ATCC 6919)
Format: cell-based
Conditions: Cutibacterium acnes, ATCC6919; Brucella agar with laked sheep blood, 48 hours anaerobic, 35° C.

Row | SMILES | MIC [µg/mL]
14 | CC1CCN(Cc2cccc3c2CC2CC4[C@@H](N(C)C)C(O)=C(C(N)=O)C(=O)[C@@]4(O)C(O)=C2C3=O)CC1 (stereo partly shown) [K] | 0 to 8

System: P. acnes (PBS 1074)
Assay: In vitro MIC assay, P. acnes (PBS 1074)
Format: cell-based
Conditions: Cutibacterium acnes; Brucella agar with laked sheep blood, 48 hours anaerobic, 35° C.

Row | SMILES | MIC [µg/mL]
15 | CC1CCN(Cc2cccc3c2CC2CC4[C@@H](N(C)C)C(O)=C(C(N)=O)C(=O)[C@@]4(O)C(O)=C2C3=O)CC1 (stereo partly shown) [K] | 28 to 32 (≈ 54.9 to 62.8 µM)

System: B. theraiotaomicron (ATCC 29741)
Assay: In vitro MIC assay, B. theraiotaomicron (ATCC 29741)
Format: cell-based
Conditions: not given

Row | SMILES | MIC [µg/mL]
16 | CC1CCN(Cc2cccc3c2CC2CC4[C@@H](N(C)C)C(O)=C(C(N)=O)C(=O)[C@@]4(O)C(O)=C2C3=O)CC1 (stereo partly shown) [K] | 28 to 32 (≈ 54.9 to 62.8 µM)
